From a compilation of properties of binary mixtures (doi:10.1016/j.molliq.2021.118200)

Assay: xn = mol fraction of the nth substance listed
Conditions: 100 kPa

CC(=O)[O-].COCCn1cc[n+](C)c1 + O
Conditions	electrical conductivity [S/m]	viscosity [mPa·s]
288.15 K, x1 = 0.8396	0.351	74.3
288.15 K, x1 = 0.8663	0.313	76.6
288.15 K, x1 = 0.8945	0.278	78.6
288.15 K, x1 = 0.9225	0.244	80.4
288.15 K, x1 = 0.9511	0.215	82.1
288.15 K, x1 = 1	0.162	85.1
293.15 K, x1 = 0.8663	0.373	56.95
293.15 K, x1 = 0.9225	0.3	60.54
293.15 K, x1 = 0.9511	0.268	62.23
293.15 K, x1 = 1	0.215	65.09
298.15 K, x1 = 0.8396	0.476	41.38
298.15 K, x1 = 0.8663	0.437	43.06
298.15 K, x1 = 0.8945	0.405	44.51
298.15 K, x1 = 0.9225	0.371	45.75
298.15 K, x1 = 0.9511	0.342	46.93
298.15 K, x1 = 1	0.29	49.12
303.15 K, x1 = 0.8396	0.564	28.47
303.15 K, x1 = 0.8663	0.529	–
303.15 K, x1 = 0.9225	0.466	34.3
303.15 K, x1 = 0.9511	0.439	35.83
303.15 K, x1 = 1	0.39	38.77
308.15 K, x1 = 0.8396	0.673	24.95
308.15 K, x1 = 0.8945	0.604	26.78
308.15 K, x1 = 0.9225	0.572	27.6
308.15 K, x1 = 0.9511	0.541	28.32
308.15 K, x1 = 1	0.491	29.64
313.15 K, x1 = 0.8396	0.807	20.97
313.15 K, x1 = 0.8663	0.773	21.65
313.15 K, x1 = 0.8945	0.733	22.3
313.15 K, x1 = 0.9225	0.698	22.87
313.15 K, x1 = 0.9511	0.666	23.4
313.15 K, x1 = 1	0.611	24.35
318.15 K, x1 = 0.8396	0.963	17.28
318.15 K, x1 = 0.8945	0.886	18.26
318.15 K, x1 = 0.9225	0.851	18.74
318.15 K, x1 = 0.9511	0.814	19.18
318.15 K, x1 = 1	0.759	19.91

CCC(=O)[O-].COCCn1cc[n+](C)c1 + O
Conditions	electrical conductivity [S/m]	viscosity [mPa·s]
288.15 K, x1 = 0.8582	0.278	88.4
288.15 K, x1 = 0.9175	0.201	104.5
288.15 K, x1 = 0.9479	0.169	113.9
293.15 K, x1 = 0.8302	0.362	61.46
293.15 K, x1 = 0.8582	0.324	66.3
293.15 K, x1 = 0.8879	0.289	72.1
293.15 K, x1 = 0.9175	0.254	78.1
293.15 K, x1 = 1	0.166	93.3
298.15 K, x1 = 0.8582	0.387	50.5
298.15 K, x1 = 0.8879	0.352	54.67
298.15 K, x1 = 0.9175	0.315	59.23
303.15 K, x1 = 0.8302	0.523	37.29
303.15 K, x1 = 0.8879	0.448	42.96
303.15 K, x1 = 0.9175	0.411	46.22
303.15 K, x1 = 0.9479	0.378	49.63
303.15 K, x1 = 1	0.32	54.2
308.15 K, x1 = 0.8302	0.625	29.69
308.15 K, x1 = 0.8582	0.584	31.71
308.15 K, x1 = 0.8879	0.548	33.88
308.15 K, x1 = 0.9175	0.511	36.42
308.15 K, x1 = 0.9479	0.479	39.09
308.15 K, x1 = 1	0.42	42.49
313.15 K, x1 = 0.8302	0.724	24.42
313.15 K, x1 = 0.8582	0.687	25.86
313.15 K, x1 = 0.8879	0.653	27.57
313.15 K, x1 = 0.9175	0.616	29.53
313.15 K, x1 = 1	0.532	33.96
318.15 K, x1 = 0.8302	0.881	18.8
318.15 K, x1 = 0.8879	0.799	21.28
318.15 K, x1 = 0.9175	0.759	22.93
318.15 K, x1 = 1	0.663	26.51
